Results taken from patent publication US11084790B2, “Insoluble complex or solvate thereof, pharmaceutical composition and use thereof” (Fruithy Holdings Limited, priority 2017, dated 2021).
Structures can show the parent of a compound that is named as a salt.

What was measured:
[1] = Test on the solubility in a simulated body fluid; format: physicochemical
Method: Test on the Solubility in a Simulated Body Fluid
The concentration of the drug dissolved in the PBS buffered solution was determined with an HPLC-a method.

[2] = Test on the solubility in media at different pH; format: physicochemical
Method: Test on the Solubility in Media at Different pH
About 200 mg of solid powders of Preparation Example 10 and Preparation Example 15 were added in a 500 mL phosphate buffered solution at different pH values (50 mmol/L, pH 5.5, pH 6.5, pH 7.4, and pH 8.0) respectively, placed into a dissolution tester, kept at a constant temperature of 37° C., and paddle stirred at 50 rpm for 72 hours. Appropriate amounts of the suspension were taken out at 15 min, 30 min, 45 min, 1 h, 2 h, 4 h, 6 h, 8 h, 24 h, 32 h, 48 h, and 72 h respectively, and centrifuged immediately (15000 rpm, 5 min). The supernatant was diluted with methanol by a factor of two. The concentration of the drug dissolved in the PB buffer solution was determined with an HPLC-b method.

[3] = Systemic pharmacokinetic study of a bis(bupivacaine) pamoate suspension after a single subcutaneous injection at three points in a hind limb in SD rats; format: in vivo; conditions: male, rat, sc, single subcutaneous injection at three points in left hind limb, 5 mg/kg, bupivacaine in blood
Text: Systemic Pharmacokinetic Study of a bis(bupivacaine) pamoate Suspension After a Single Subcutaneously Injection at Three Points in a Hind Limb in SD Rats
The systemic absorption and exposure of bis(bupivacaine) pamoate in a rat body was further evaluated by performing a systemic pharmacokinetic research on SD rats which were subcutaneously injected with a bis(bupivacaine) pamoate suspension (Formulation Example 3) once at three points in a left hind limb and comparing with a commercial bupivacaine hydrochloride injection. The long-acting sustained release feature of bis(bupivacaine) pamoate was verified by comparing the pharmacokinetic parameters of bis(bupivacaine) pamoate with a commercial formulation.
In the example, 20 healthy SD male rats (Beijing Vital River Laboratory Animal Technology Co., Ltd., 190 to 210 g) were chosen and randomly divided into 2 groups, i.e., a group for Formulation Example 3 and a group for the commercial bupivacaine hydrochloride injection (Wuhu Kangqi Pharmaceutical Co., Ltd.) group, with 10 animals in each group.
About 0.5 mL of venous blood was collected at 30 min, 1 h, 2 h, 6 h, 8 h, 24 h, 48 h, 72 h and 96 h respectively after administration for both groups of laboratory animals for determining the blood drug concentration of bupivacaine.

[4] = 0.01 M PBS pH 7.4, 37° C., 5 min
[5] = 0.01 M PBS pH 7.4, 37° C., 15 min
[6] = 0.01 M PBS pH 7.4, 37° C., 30 min
[7] = 0.01 M PBS pH 7.4, 37° C., 24 h
[8] = phosphate buffer pH 5.5, 37° C., 0.25 h
[9] = phosphate buffer pH 5.5, 37° C., 0.5 h
[10] = phosphate buffer pH 5.5, 37° C., 0.75 h
[11] = phosphate buffer pH 5.5, 37° C., 1 h
[12] = phosphate buffer pH 5.5, 37° C., 2 h
[13] = phosphate buffer pH 5.5, 37° C., 4 h
[14] = phosphate buffer pH 5.5, 37° C., 6 h
[15] = phosphate buffer pH 5.5, 37° C., 8 h
[16] = phosphate buffer pH 5.5, 37° C., 24 h
[17] = phosphate buffer pH 5.5, 37° C., 32 h
[18] = phosphate buffer pH 5.5, 37° C., 48 h
[19] = phosphate buffer pH 5.5, 37° C., 72 h
[20] = phosphate buffer pH 6.5, 37° C., 0.25 h
[21] = phosphate buffer pH 6.5, 37° C., 0.5 h
[22] = phosphate buffer pH 6.5, 37° C., 0.75 h
[23] = phosphate buffer pH 6.5, 37° C., 1 h
[24] = phosphate buffer pH 6.5, 37° C., 2 h
[25] = phosphate buffer pH 6.5, 37° C., 4 h
[26] = phosphate buffer pH 6.5, 37° C., 6 h
[27] = phosphate buffer pH 6.5, 37° C., 8 h
[28] = phosphate buffer pH 6.5, 37° C., 24 h
[29] = phosphate buffer pH 6.5, 37° C., 32 h
[30] = phosphate buffer pH 6.5, 37° C., 48 h
[31] = phosphate buffer pH 6.5, 37° C., 72 h
[32] = phosphate buffer pH 7.4, 37° C., 0.25 h
[33] = phosphate buffer pH 7.4, 37° C., 0.5 h
[34] = phosphate buffer pH 7.4, 37° C., 0.75 h
[35] = phosphate buffer pH 7.4, 37° C., 1 h
[36] = phosphate buffer pH 7.4, 37° C., 2 h
[37] = phosphate buffer pH 7.4, 37° C., 4 h
[38] = phosphate buffer pH 7.4, 37° C., 6 h
[39] = phosphate buffer pH 7.4, 37° C., 8 h
[40] = phosphate buffer pH 7.4, 37° C., 24 h
[41] = phosphate buffer pH 7.4, 37° C., 32 h
[42] = phosphate buffer pH 7.4, 37° C., 48 h
[43] = phosphate buffer pH 7.4, 37° C., 72 h
[44] = phosphate buffer pH 8.0, 37° C., 0.25 h
[45] = phosphate buffer pH 8.0, 37° C., 0.5 h
[46] = phosphate buffer pH 8.0, 37° C., 0.75 h
[47] = phosphate buffer pH 8.0, 37° C., 1 h
[48] = phosphate buffer pH 8.0, 37° C., 2 h
[49] = phosphate buffer pH 8.0, 37° C., 4 h
[50] = phosphate buffer pH 8.0, 37° C., 6 h
[51] = phosphate buffer pH 8.0, 37° C., 8 h
[52] = phosphate buffer pH 8.0, 37° C., 24 h
[53] = phosphate buffer pH 8.0, 37° C., 32 h
[54] = phosphate buffer pH 8.0, 37° C., 48 h
[55] = phosphate buffer pH 8.0, 37° C., 72 h

CCCCN1CCCCC1C(=O)Nc1c(C)cccc1C.CCCCN1CCCCC1C(=O)Nc1c(C)cccc1C.O=C(O)c1cc2ccccc2c(Cc2c(O)c(C(=O)O)cc3ccccc23)c1O [Preparation Example 15, bis(bupivacaine) pamoate]
Compound concentration: Bupivacaine [1, 4]: 0.1128 mM | Compound concentration: Pamoic acid [1, 4]: 0.0572 mM | Compound concentration: Bupivacaine [1, 5]: 0.1538 mM | Compound concentration: Pamoic acid [1, 5]: 0.0779 mM | Compound concentration: Bupivacaine [1, 6]: 0.2394 mM | Compound concentration: Pamoic acid [1, 6]: 0.1202 mM | Compound concentration: Bupivacaine ([1]; 0.01 M PBS pH 7.4, 37° C., 1 h): 0.2574 mM | Compound concentration: Pamoic acid ([1]; 0.01 M PBS pH 7.4, 37° C., 1 h): 0.1278 mM | Compound concentration: Bupivacaine ([1]; 0.01 M PBS pH 7.4, 37° C., 2 h): 0.2875 mM | Compound concentration: Pamoic acid ([1]; 0.01 M PBS pH 7.4, 37° C., 2 h): 0.1415 mM | Compound concentration: Bupivacaine ([1]; 0.01 M PBS pH 7.4, 37° C., 6 h): 0.2901 mM | Compound concentration: Pamoic acid ([1]; 0.01 M PBS pH 7.4, 37° C., 6 h): 0.1467 mM | Compound concentration: Bupivacaine [1, 7]: 0.2903 mM | Compound concentration: Pamoic acid [1, 7]: 0.1430 mM | stability of the suspension (ratio between acid radical and basic group) ([1]; simulated body fluid): stable | solubility ([1]; simulated body fluid, 0.01 M PBS pH 7.4, 37° C.): about 0.3 mM | molar ratio of the solubility (bupivacaine to pamoic acid) ([2]; media at pH 5.5, pH 6.5, pH 7.4 and pH 8.0, remained for at least 72 hours): around 2.0 | Molar concentration of Bupivacaine [2, 8]: 0.050 mmol/L | Molar concentration of Pamoic acid [2, 8]: 0.020 mmol/L | Molar concentration of Bupivacaine [2, 9]: 0.070 mmol/L | Molar concentration of Pamoic acid [2, 9]: 0.034 mmol/L | Molar concentration of Bupivacaine [2, 10]: 0.140 mmol/L | Molar concentration of Pamoic acid [2, 10]: 0.070 mmol/L | Molar concentration of Bupivacaine [2, 11]: 0.196 mmol/L | Molar concentration of Pamoic acid [2, 11]: 0.092 mmol/L | Molar concentration of Bupivacaine [2, 12]: 0.198 mmol/L | Molar concentration of Pamoic acid [2, 12]: 0.094 mmol/L | Molar concentration of Bupivacaine [2, 13]: 0.198 mmol/L | Molar concentration of Pamoic acid [2, 13]: 0.092 mmol/L | Molar concentration of Bupivacaine [2, 14]: 0.198 mmol/L | Molar concentration of Pamoic acid [2, 14]: 0.094 mmol/L | Molar concentration of Bupivacaine [2, 15]: 0.198 mmol/L | Molar concentration of Pamoic acid [2, 15]: 0.092 mmol/L | Molar concentration of Bupivacaine [2, 16]: 0.192 mmol/L | Molar concentration of Pamoic acid [2, 16]: 0.088 mmol/L | Molar concentration of Bupivacaine [2, 17]: 0.196 mmol/L | Molar concentration of Pamoic acid [2, 17]: 0.092 mmol/L | Molar concentration of Bupivacaine [2, 18]: 0.198 mmol/L | Molar concentration of Pamoic acid [2, 18]: 0.092 mmol/L | Molar concentration of Bupivacaine [2, 19]: 0.190 mmol/L | Molar concentration of Pamoic acid [2, 19]: 0.084 mmol/L | Molar concentration of Bupivacaine [2, 20]: 0.046 mmol/L | Molar concentration of Pamoic acid [2, 20]: 0.024 mmol/L | Molar concentration of Bupivacaine [2, 21]: 0.076 mmol/L | Molar concentration of Pamoic acid [2, 21]: 0.038 mmol/L | Molar concentration of Bupivacaine [2, 22]: 0.138 mmol/L | Molar concentration of Pamoic acid [2, 22]: 0.076 mmol/L | Molar concentration of Bupivacaine [2, 23]: 0.202 mmol/L | Molar concentration of Pamoic acid [2, 23]: 0.106 mmol/L | Molar concentration of Bupivacaine [2, 24]: 0.204 mmol/L | Molar concentration of Pamoic acid [2, 24]: 0.108 mmol/L | Molar concentration of Bupivacaine [2, 25]: 0.202 mmol/L | Molar concentration of Pamoic acid [2, 25]: 0.106 mmol/L | Molar concentration of Bupivacaine [2, 26]: 0.198 mmol/L | Molar concentration of Pamoic acid [2, 26]: 0.104 mmol/L | Molar concentration of Bupivacaine [2, 27]: 0.198 mmol/L | Molar concentration of Pamoic acid [2, 27]: 0.106 mmol/L | Molar concentration of Bupivacaine [2, 28]: 0.198 mmol/L | Molar concentration of Pamoic acid [2, 28]: 0.106 mmol/L | Molar concentration of Bupivacaine [2, 29]: 0.202 mmol/L | Molar concentration of Pamoic acid [2, 29]: 0.106 mmol/L | Molar concentration of Bupivacaine [2, 30]: 0.200 mmol/L | Molar concentration of Pamoic acid [2, 30]: 0.106 mmol/L | Molar concentration of Bupivacaine [2, 31]: 0.196 mmol/L | Molar concentration of Pamoic acid [2, 31]: 0.100 mmol/L | Molar concentration of Bupivacaine [2, 32]: 0.038 mmol/L | Molar concentration of Pamoic acid [2, 32]: 0.020 mmol/L | Molar concentration of Bupivacaine [2, 33]: 0.080 mmol/L | Molar concentration of Pamoic acid [2, 33]: 0.042 mmol/L | Molar concentration of Bupivacaine [2, 34]: 0.192 mmol/L | Molar concentration of Pamoic acid [2, 34]: 0.100 mmol/L | Molar concentration of Bupivacaine [2, 35]: 0.240 mmol/L | Molar concentration of Pamoic acid [2, 35]: 0.134 mmol/L | Molar concentration of Bupivacaine [2, 36]: 0.246 mmol/L | Molar concentration of Pamoic acid [2, 36]: 0.134 mmol/L | Molar concentration of Bupivacaine [2, 37]: 0.242 mmol/L | Molar concentration of Pamoic acid [2, 37]: 0.134 mmol/L | Molar concentration of Bupivacaine [2, 38]: 0.234 mmol/L | Molar concentration of Pamoic acid [2, 38]: 0.13 mmol/L | Molar concentration of Bupivacaine [2, 39]: 0.232 mmol/L | Molar concentration of Pamoic acid [2, 39]: 0.128 mmol/L | Molar concentration of Bupivacaine [2, 40]: 0.226 mmol/L | Molar concentration of Pamoic acid [2, 40]: 0.124 mmol/L | Molar concentration of Bupivacaine [2, 41]: 0.226 mmol/L | Molar concentration of Pamoic acid [2, 41]: 0.124 mmol/L | Molar concentration of Bupivacaine [2, 42]: 0.230 mmol/L | Molar concentration of Pamoic acid [2, 42]: 0.126 mmol/L | Molar concentration of Bupivacaine [2, 43]: 0.224 mmol/L | Molar concentration of Pamoic acid [2, 43]: 0.120 mmol/L | Molar concentration of Bupivacaine [2, 44]: 0.036 mmol/L | Molar concentration of Pamoic acid [2, 44]: 0.020 mmol/L | Molar concentration of Bupivacaine [2, 45]: 0.092 mmol/L | Molar concentration of Pamoic acid [2, 45]: 0.050 mmol/L | Molar concentration of Bupivacaine [2, 46]: 0.252 mmol/L | Molar concentration of Pamoic acid [2, 46]: 0.138 mmol/L | Molar concentration of Bupivacaine [2, 47]: 0.328 mmol/L | Molar concentration of Pamoic acid [2, 47]: 0.182 mmol/L | Molar concentration of Bupivacaine [2, 48]: 0.336 mmol/L | Molar concentration of Pamoic acid [2, 48]: 0.186 mmol/L | Molar concentration of Bupivacaine [2, 49]: 0.338 mmol/L | Molar concentration of Pamoic acid [2, 49]: 0.192 mmol/L | Molar concentration of Bupivacaine [2, 50]: 0.338 mmol/L | Molar concentration of Pamoic acid [2, 50]: 0.190 mmol/L | Molar concentration of Bupivacaine [2, 51]: 0.334 mmol/L | Molar concentration of Pamoic acid [2, 51]: 0.186 mmol/L | Molar concentration of Bupivacaine [2, 52]: 0.326 mmol/L | Molar concentration of Pamoic acid [2, 52]: 0.182 mmol/L | Molar concentration of Bupivacaine [2, 53]: 0.328 mmol/L | Molar concentration of Pamoic acid [2, 53]: 0.186 mmol/L | Molar concentration of Bupivacaine [2, 54]: 0.336 mmol/L | Molar concentration of Pamoic acid [2, 54]: 0.186 mmol/L | Molar concentration of Bupivacaine [2, 55]: 0.336 mmol/L | Molar concentration of Pamoic acid [2, 55]: 0.184 mmol/L

CCCCN1CCCCC1C(=O)Nc1c(C)cccc1C (stereo not drawn) [bupivacaine hydrochloride]
AUC(0-t) [3]: 711 ng·h/mL | Cmax [3]: 330 ng/mL | Tmax [3]: 37.8 min | half-life [3]: 60 min
